According to article PMC7765321, “Novel Isoniazid-Carborane Hybrids Active In Vitro against Mycobacterium tuberculosis” (Pharmaceuticals, 2020):
Converted amounts (≈) assume the structure as drawn.

Tests used:
[1] = for permeation compared to INH (4): PAMPA; for PAMPA log Pe: PBS pH 7.4, 18 h, RT, Pe in cm/s
[2] = test system: Mtb H37Rv strain; experiment: microbe, parasite or virus in culture; type: cell-based; conditions: for MIC50: concentration exhibiting 50% inhibition of mycobacterial growth; for MIC50 / MIC99: wild-type Mtb H37Rv, 96 h; for MIC99: concentration exhibiting 99% inhibition of mycobacterial growth
[3] = test system: HaCaT cells
[4] = Partition (P) and distribution (D) coefficient, shake-flask octan-1-ol/water or PBS
[5] = test system: HaCaT cells; conditions: 24 h at MIC50 and MIC99 values for the Mtb strain
[6] = test system: HaCaT cells; remark: listed apart in the source
[7] = in vitro; conditions: PAMPA, pH 7.4
[8] = Determination of the CC50 value (MTT assay); conditions: human, HaCaT cells (immortalized keratinocytes)
[9] = test system: Mtb; design: method as in PMID 28390957; conditions: against Mtb; cited from earlier work
[10] = octan-1-ol/water, shake-flask, RT

| Compound | permeation compared to INH (4) [1] | PAMPA log Pe [1] | MIC50 [2] [µM] | MIC99 [2] [µM] | CC50 [3] [µM] | log P [4, 10] | further results |
| --- | --- | --- | --- | --- | --- | --- | --- |
| N′-((1,2-dicarba-closo-dodecaboran-1-yl)ethyl)isonicotinohydrazide [Compound 23] | two orders of magnitude higher | −4.16 ± 0.05 | 1.60 | 4.90 | 86.5 ± 4.59 | 0.64 ± 0.09 |  |
| N′-((1,2-dicarba-closo-dodecaboran-1-yl)propanoyl)isonicotinohydrazide [Compound 8] | two orders of magnitude higher | −4.98 ± 0.12 | 44.70 | 100 | 86.6 ± 3.63 | 0.67 ± 0.07 | apoptotic/necrotic cells [5]: 16.45%; viable cells (MTT) ([6]; 24 h at concentration consistent with MIC99 for wild-type Mtb): 50% |
| N′-((1,7-dicarba-closo-dodecaboran-1-yl)ethyl)isonicotinohydrazide [Compound 24] | two orders of magnitude higher | −4.85 ± 0.06 | 0.81 | 3.25 | 105 ± 6.13 | 0.66 ± 0.08 |  |
| N′-((1,12-dicarba-closo-dodecaboran-1-yl)methylidene)isonicotinohydrazide [Compound 15] | three orders of magnitude higher | −3.90 ± 0.17 | 10.30 | 17.20 | 305 ± 6.11 | 2.28 ± 0.20 |  |
| N′-((1,12-dicarba-closo-dodecaboran-1-yl)propanoyl)isonicotinohydrazide [Compound 10] | two orders of magnitude higher | −4.65 ± 0.09 | 29.80 | 74.50 | 161 ± 3.89 | 0.99 ± 0.07 |  |
| N′-((1,7-dicarba-closo-dodecaboran-1-yl)ethylidene)isonicotinohydrazide [Compound 21] | two orders of magnitude higher | −4.40 ± 0.10 | 0.16 | 0.82 | 78.23 ± 0.71 | 1.66 ± 0.18 |  |
| NNC(=O)c1ccncc1 [4 (INH), pyridine-4-carbohydrazide, reference compound] |  |  |  |  |  |  | Papp at 18 h [7]: 0.617 ×10⁻⁶ cm/s; MIC50 ([2]; Mycobacterium tuberculosis): 0.073 µM (≈ 0.01 µg/mL); MIC99 ([2]; Mycobacterium tuberculosis): 0.36 µM (≈ 0.0494 µg/mL); CC50 [8]: 725.8 ± 2.36 µM; logP at 0.5 h ([4]; octan-1-ol/water): -1 ± 0.09; MIC [9]: 0.20 µg/mL (≈ 1.46 µM) |
| 1,12-dicarba-closo-dodecaborane-1-carboxylic acid hydrazide [Compound 3] |  |  |  |  |  |  | growth inhibition of Mtb ([2]; at 75 µg/mL (0.37 mM)): not considerably inhibited |
| N′-((1,2-dicarba-closo-dodecaboran-1-yl)ethylidene)isonicotinohydrazide [Compound 20] | one order of magnitude higher | −5.05 ± 0.09 | 0.082 | 1.60 | 81.5 ± 7.23 | 1.26 ± 0.22 |  |
| N′-((1,7-dicarba-closo-dodecaboran-1-yl)methylidene)isonicotinohydrazide [Compound 14] | two orders of magnitude higher | −4.06 ± 0.09 | 0.86 | 3.40 | 131 ± 3.46 | 2.03 ± 0.09 |  |
| N′-((1,12-dicarba-closo-dodecaboran-1-yl)ethylidene)isonicotinohydrazide [Compound 22] | two orders of magnitude higher | −4.13 ± 0.07 | 0.16 | 1.60 | 80.2 ± 3.81 | 1.30 ± 0.07 |  |
| N′-((1,12-dicarba-closo-dodecaboran-1-yl)ethyl)isonicotinohydrazide [Compound 25] | two orders of magnitude higher | −4.37 ± 0.04 | 0.32 | 6.50 |  | 1.15 ± 0.14 |  |
| N′-((7,8-dicarba-nido-undecaboranyl)methylidene)isonicotinohydrazide [Compound 16] | one order of magnitude higher | −5.05 ± 0.30 | 0.16 | 0.33 | 249.4 ± 0.56 |  | log D7.4 ([4]; octan-1-ol/PBS, shake-flask, RT): 0.67 ± 0.04 |
| N′-((1,7-dicarba-closo-dodecaboran-1-yl)propanoyl)isonicotinohydrazide [Compound 9] | one order of magnitude higher | −5.09 ± 0.07 | 22.40 | 74.50 | 290.6 ± 1.45 | 1.11 ± 0.11 | cytotoxicity / cell viability (MTT) ([6]; 24 h at MIC50 and MIC99 values for the ΔkatG strain): did not cause severe cytotoxicity |
